Test results: patent US10058549B2, “Imidazo[1,2-α]pyridine derivatives as modulators of the 5-HT2A serotonin receptor useful for the treatment of disorders related thereto” (Arena Pharmaceuticals, Inc., priority 2007, dated 2018)

Experiments:
[1] = test system: DOI-induced hypolocomotion in rats; assay: Attenuation of DOI-induced hypolocomotion in rats; assay type: in vivo, rat; conditions: compound 1-10 mg/kg p.o., DOI 1 mg/kg s.c.
Experimental: In this example, compounds of the invention were tested for inverse agonist activity by determining whether these compounds could attenuate DOI-induced hypolocomotion in rats in a novel environment. DOI is a potent 5-HT2A/2C receptor agonist that crosses the blood-brain barrier. The standard protocol used is described briefly below.
Male Sprague-Dawley rats weighing between 200-350 g were used for all tests. Rats were housed three to four per cage.
(R)-DOI HCl (C11H16INO2.HCl) was obtained from Sigma-Aldrich and was dissolved in 0.9% saline. Compounds of the invention were synthesized at Arena Pharmaceuticals Inc., San Diego, Calif. and were dissolved in 100% PEG400. DOI was injected s.c. in a volume of 1 mL/kg, while compounds of the invention were administered p.o. in a volume of 1 mL/kg.
The “Motor Monitor” (Hamilton-Kinder, Poway, Calif.) was used for all activity measurement. This apparatus recorded rears using infrared photobeams. […]
In determining the effects of compounds of the invention on DOI-induced hypoactivity, animals were first injected with vehicle or the compound of the invention (1-10 mg/kg) in their home cages. […] Ten minutes after DOI administration, animals were placed into the activity apparatus and rearing activity was measured for 10 min.
Results (total rears over 10 min) were analyzed by t-test. […]

[2] = test system: JC virus; conditions: human glial cells; cited from earlier work
[3] = test system: heatstroke; conditions: during heatstroke; cited from earlier work
[4] = test system: diabetic rats; conditions: 19.8% deficit in diabetic rats; cited from earlier work
[5] = test system: diabetic nephropathy patients; conditions: 24 months of treatment; cited from earlier work
[6] = test system: thermal induced pain in rats; conditions: intraperitoneal administration; cited from earlier work
[7] = test system: inflammatory pain in rats; conditions: intrathecal or intraperitoneal administration; cited from earlier work
[8] = test system: humans; conditions: lumbar disc herniation; cited from earlier work
[9] = test system: healthy adults; assay: Phase 1 trials, waking EEG; assay type: in vivo, human
[10] = test system: normal volunteers; assay: Afternoon nap model of insomnia in normal volunteers; assay type: in vivo, human

SMILES: O=C(c1cccn2ccnc12)N1CCN(CCc2ccc(Cl)cc2Cl)CC1 [Compound 19, (4-(2,4-Dichlorophenethyl)piperazin-1-yl)(imidazo[1,2-a]pyridin-8-yl)methanone]
- attenuation of DOI-induced hypolocomotion (total rears over 10 min) [1]: attenuated DOI-induced hypolocomotion

SMILES: O=C(c1ccc(F)cc1)C1CCN(CCn2c(=O)[nH]c3ccccc3c2=O)CC1 [ketanserin]
- JC virus infection [2]: inhibited
- protection against circulatory shocks, intracranial hypertension and cerebral ischemia [3]: protect against circulatory shocks, intracranial hypertension and cerebral ischemia

SMILES: COc1cccc(CCc2ccccc2OCC(CN(C)C)OC(=O)CCC(=O)O)c1 (stereo not drawn) [sarpogrelate]
- correction of sciatic motor conduction deficit [4]: 82.6-99.7%
- urinary albumin excretion level [5]: significantly reduced
- analgesic effect on thermal induced pain [6]: significant analgesic effect
- analgesic effect on inflammatory pain [7]: significant analgesic effect
- treatment of lower back pain, leg pain and numbness associated with sciatica [8]: effective treatment

SMILES: Cc1nc2sccn2c(=O)c1CCN1CCC(=C(c2ccc(F)cc2)c2ccc(F)cc2)CC1 [ritanserin]
- correction of sciatic motor conduction deficit [4]: 82.6-99.7%
- JC virus infection [2]: inhibited

SMILES: O=C(c1cccn2ccnc12)N1CCN(CCc2ccccc2F)CC1 [Compound 18, (4-(2-Fluorophenethyl)piperazin-1-yl)(imidazo[1,2-a]pyridin-8-yl)methanone]
- attenuation of DOI-induced hypolocomotion (total rears over 10 min) [1]: attenuated DOI-induced hypolocomotion

SMILES: O=CN1CCC(C(=O)NCCN2CCC(=C3c4ccccc4C=Cc4ccccc43)CC2)CC1 [AT-1015]
- correction of sciatic motor conduction deficit [4]: 82.6-99.7%

SMILES: COc1ccc(NC(=O)Nc2ccc(F)cc2F)cc1-c1c(Br)cnn1C [APD125]
- effect on waking EEG [9]: vigilance-lowering effects
- dose of maximal vigilance-lowering effects ([9]; waking EEG): 40 to 80 mg
- time of peak effects after dosing ([9]; waking EEG): 2 to 4 h
- microarousals, number of sleep stage shifts and number of awakenings after sleep onset ([10]; human, in vivo): decreased
- sleep onset latency ([10]; human, in vivo): not decreased
- slow wave sleep and associated parameters ([10]; primarily during the early part of sleep): increased slow wave sleep and associated parameters in a dose-dependent manner
